*1 amine or outer side, *2 acyl side, *3 side chain or, on linkers, in order; H or OH if unused. Where a SMILES comes first, the peptide text is derived from it. [ ]: non-standard residue; d: D form. The star is where a group is joined. ξ: configuration not given here. ξThr(3S) = C[C@H](O[*:3])C(N[*:1])C(=O)[*:2]; X2 = O=C(CN*)COC(=O)c1c2ccccc2cc2ccccc12; X1 = O=C(Cc1ccc(O)c([N+](=O)[O-])c1)*
Experiments:
Experiment in all cases: Fluorogenic Assay
Conditions in all cases: pH 8; 37 °C
[1] = molecular target: T1, Sentrin-specific protease 1 (Homo sapiens, UniProt Q9P0U3)
T1 sequence (Q9P0U3 whole entry): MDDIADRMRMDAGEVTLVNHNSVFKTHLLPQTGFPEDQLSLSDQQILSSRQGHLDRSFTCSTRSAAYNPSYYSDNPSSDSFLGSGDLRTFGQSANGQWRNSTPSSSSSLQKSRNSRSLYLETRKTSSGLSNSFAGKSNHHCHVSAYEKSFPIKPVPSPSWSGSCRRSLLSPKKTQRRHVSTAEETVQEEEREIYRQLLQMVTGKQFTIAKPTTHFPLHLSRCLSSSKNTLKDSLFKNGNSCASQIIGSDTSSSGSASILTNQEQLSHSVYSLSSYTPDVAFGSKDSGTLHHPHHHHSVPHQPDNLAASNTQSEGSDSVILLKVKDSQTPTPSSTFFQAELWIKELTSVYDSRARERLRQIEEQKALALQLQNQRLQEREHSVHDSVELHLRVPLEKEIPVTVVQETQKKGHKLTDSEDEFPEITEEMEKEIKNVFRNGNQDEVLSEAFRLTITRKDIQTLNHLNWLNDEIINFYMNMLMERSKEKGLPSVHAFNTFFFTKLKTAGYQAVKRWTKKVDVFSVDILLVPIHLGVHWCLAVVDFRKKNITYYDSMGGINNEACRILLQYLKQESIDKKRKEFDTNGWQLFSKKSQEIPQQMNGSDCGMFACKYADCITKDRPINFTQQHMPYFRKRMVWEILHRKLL
Procedure: The fluorogenic substrate library screen was performed with hSENP1 in low salt tris buffer at final concentration of 2uM. Fluorophore release (AFC) production was measured using fluorescence plate reader at 405nm/510nm for 10-60min.

[2] = molecular target: T2, Sentrin-specific protease 2 (Homo sapiens, UniProt Q9HC62)
T2 sequence (Q9HC62 whole entry): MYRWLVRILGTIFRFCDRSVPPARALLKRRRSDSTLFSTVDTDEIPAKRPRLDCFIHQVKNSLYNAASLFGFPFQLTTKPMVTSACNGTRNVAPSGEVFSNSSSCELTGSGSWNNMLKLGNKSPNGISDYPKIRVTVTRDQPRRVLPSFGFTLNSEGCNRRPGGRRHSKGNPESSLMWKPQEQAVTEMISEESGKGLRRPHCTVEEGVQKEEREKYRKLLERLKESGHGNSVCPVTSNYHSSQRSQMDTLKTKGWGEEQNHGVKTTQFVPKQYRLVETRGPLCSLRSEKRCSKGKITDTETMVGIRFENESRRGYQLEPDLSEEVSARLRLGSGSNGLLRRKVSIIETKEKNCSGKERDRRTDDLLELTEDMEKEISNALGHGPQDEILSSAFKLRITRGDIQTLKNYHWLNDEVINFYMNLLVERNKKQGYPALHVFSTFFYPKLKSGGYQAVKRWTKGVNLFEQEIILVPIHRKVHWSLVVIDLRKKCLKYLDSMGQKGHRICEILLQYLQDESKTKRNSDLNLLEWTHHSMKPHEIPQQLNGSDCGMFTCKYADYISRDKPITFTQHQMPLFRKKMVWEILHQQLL

[3] = molecular target: T3, Sentrin-specific protease 6 (Homo sapiens, UniProt Q9GZR1)
T3 sequence (Q9GZR1 whole entry): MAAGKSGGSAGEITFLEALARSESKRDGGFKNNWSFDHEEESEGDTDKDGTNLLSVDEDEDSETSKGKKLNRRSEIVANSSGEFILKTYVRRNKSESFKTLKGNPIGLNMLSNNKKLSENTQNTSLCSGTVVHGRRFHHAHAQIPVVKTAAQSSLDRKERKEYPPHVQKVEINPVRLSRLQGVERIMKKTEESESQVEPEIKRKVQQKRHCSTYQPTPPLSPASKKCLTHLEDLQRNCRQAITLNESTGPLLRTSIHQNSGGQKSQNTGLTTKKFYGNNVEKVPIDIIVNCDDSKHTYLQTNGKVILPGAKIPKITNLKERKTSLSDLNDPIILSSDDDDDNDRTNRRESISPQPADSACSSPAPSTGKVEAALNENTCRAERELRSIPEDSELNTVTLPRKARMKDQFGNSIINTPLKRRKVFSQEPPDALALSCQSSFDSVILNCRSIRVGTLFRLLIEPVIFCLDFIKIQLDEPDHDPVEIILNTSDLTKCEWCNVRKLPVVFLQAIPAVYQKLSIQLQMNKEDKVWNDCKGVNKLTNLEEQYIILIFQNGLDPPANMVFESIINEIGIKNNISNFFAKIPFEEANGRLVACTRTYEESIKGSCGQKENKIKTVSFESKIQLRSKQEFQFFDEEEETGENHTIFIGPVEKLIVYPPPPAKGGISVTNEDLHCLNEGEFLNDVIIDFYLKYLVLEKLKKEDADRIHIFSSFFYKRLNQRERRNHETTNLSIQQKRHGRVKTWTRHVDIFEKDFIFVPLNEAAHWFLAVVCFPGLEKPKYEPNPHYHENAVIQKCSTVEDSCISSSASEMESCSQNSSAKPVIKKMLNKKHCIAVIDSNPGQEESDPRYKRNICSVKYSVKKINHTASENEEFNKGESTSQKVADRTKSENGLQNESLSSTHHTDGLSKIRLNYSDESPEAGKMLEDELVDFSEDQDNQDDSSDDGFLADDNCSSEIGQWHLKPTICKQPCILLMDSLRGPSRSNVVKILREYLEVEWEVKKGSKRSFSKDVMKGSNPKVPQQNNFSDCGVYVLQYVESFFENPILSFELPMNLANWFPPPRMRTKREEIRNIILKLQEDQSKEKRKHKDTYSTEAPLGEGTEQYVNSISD

[4] = molecular target: T4, Sentrin-specific protease 7 (Homo sapiens, UniProt Q9BQF6)
T4 sequence (Q9BQF6 whole entry): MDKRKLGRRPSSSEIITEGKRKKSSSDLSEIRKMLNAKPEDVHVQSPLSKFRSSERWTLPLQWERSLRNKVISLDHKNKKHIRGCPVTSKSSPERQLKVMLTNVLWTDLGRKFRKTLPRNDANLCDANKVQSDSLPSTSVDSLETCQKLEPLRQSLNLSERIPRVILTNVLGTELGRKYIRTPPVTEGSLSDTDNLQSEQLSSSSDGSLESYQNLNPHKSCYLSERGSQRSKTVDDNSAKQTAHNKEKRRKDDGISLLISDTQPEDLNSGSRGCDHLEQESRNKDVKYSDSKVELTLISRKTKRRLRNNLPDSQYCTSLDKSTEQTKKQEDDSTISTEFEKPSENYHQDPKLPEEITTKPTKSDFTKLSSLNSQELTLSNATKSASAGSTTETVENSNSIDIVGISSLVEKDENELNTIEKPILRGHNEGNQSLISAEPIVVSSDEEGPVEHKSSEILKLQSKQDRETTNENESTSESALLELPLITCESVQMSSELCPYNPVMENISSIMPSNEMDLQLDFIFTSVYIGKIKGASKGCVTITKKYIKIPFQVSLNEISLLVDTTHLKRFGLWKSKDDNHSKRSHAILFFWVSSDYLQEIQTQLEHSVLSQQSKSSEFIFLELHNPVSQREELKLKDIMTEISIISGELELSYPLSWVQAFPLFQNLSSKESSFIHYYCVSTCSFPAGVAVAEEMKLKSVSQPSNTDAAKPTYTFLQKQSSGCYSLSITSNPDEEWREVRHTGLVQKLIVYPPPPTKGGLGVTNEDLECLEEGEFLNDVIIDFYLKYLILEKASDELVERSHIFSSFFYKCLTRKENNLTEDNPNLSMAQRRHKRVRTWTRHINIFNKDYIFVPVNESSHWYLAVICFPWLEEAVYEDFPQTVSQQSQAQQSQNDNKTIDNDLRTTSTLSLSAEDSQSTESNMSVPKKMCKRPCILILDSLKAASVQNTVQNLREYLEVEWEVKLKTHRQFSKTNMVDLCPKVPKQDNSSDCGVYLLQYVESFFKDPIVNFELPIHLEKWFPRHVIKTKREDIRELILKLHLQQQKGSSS

## O=C(O)CN(NC(=O)c1ccc(CNC(=O)c2cccc(C(=O)O)c2)cc1)C(=O)[C@H]1O[C@@H]1C(=O)N(Cc1cccc2ccccc12)Cc1cccc2ccccc12 [JCP-666]
[1]
  IC50: 13.8 µM
[2]
  IC50: 7 µM
[3]
  IC50: > 100 µM
[4]
  IC50: > 70 µM

## O=C(O)c1cccc(C(=O)NCc2ccc(C(=O)NNC(=O)[C@H]3O[C@@H]3C(=O)N(Cc3cccc4ccccc34)Cc3cccc4ccccc34)cc2)c1 [VEA-260]
[1]
  IC50: 7.1 µM
[2]
  IC50: 3.7 µM
[3]
  IC50: > 100 µM
[4]
  IC50: 36.5 µM

## O=C(CNC(=O)c1ccc(CNC(=O)c2cccc(C(=O)O)c2)cc1)COC(=O)c1c2ccccc2cc2ccccc12 [VEA-401]
[1]
  IC50: 23.1 µM
[2]
  IC50: 13.4 µM
[3]
  IC50: > 40 µM
[4]
  IC50: > 20 µM

## NC(=O)CNC(=O)c1ccc(C(=O)NNC(=O)[C@H]2O[C@@H]2C(=O)N(Cc2cccc3ccccc23)Cc2cccc3ccccc23)cc1 [VEA-417]
[1]
  IC50: 32.5 µM
[2]
  IC50: 13.1 µM
[3]
  IC50: > 100 µM
[4]
  IC50: > 70 µM

## NC(=O)[C@H](CC(=O)O)NC(=O)c1ccc(C(=O)NNC(=O)[C@H]2O[C@@H]2C(=O)N(Cc2cccc3ccccc23)Cc2cccc3ccccc23)cc1 [VEA-422]
[1]
  IC50: 22.4 µM
[2]
  IC50: 10.4 µM
[3]
  IC50: > 100 µM
[4]
  IC50: > 70 µM

## C[C@H](O)C(NC(=O)[C@H](CCC(N)=O)NC(=O)Cc1ccc(O)c([N+](=O)[O-])c1)C(=O)NCC(=O)NCC(=O)COC(=O)c1c2ccccc2cc2ccccc12 (some centres not stated) [VEA-499]
[1]
  IC50: 3.6 µM
[2]
  IC50: 0.25 µM
[3]
  IC50: > 60 µM
[4]
  IC50: > 100 µM

## C[C@H](O)C(NC(=O)[C@H](CCC(N)=O)NC(=O)[C@H](CCC(N)=O)NC(=O)Cc1ccc(O)c([N+](=O)[O-])c1)C(=O)NCC(=O)NCC(=O)COC(=O)c1c2ccccc2cc2ccccc12 (stereo partly drawn) [VEA-500] (X1-QQ[ξThr(3S)]G-X2)
[1]
  IC50: > 20 µM
[2]
  IC50: 0.86 µM
[3]
  IC50: > 40 µM
[4]
  IC50: > 100 µM

## CC(C)C[C@H](NC(=O)Cc1ccc(O)c([N+](=O)[O-])c1)C(=O)N[C@@H](CCCNC(=N)N)C(=O)NCC(=O)NCC(=O)COC(=O)c1c2ccccc2cc2ccccc12 [VEA-561]
[1]
  IC50: > 25 µM
[2]
  IC50: 5.7 µM
[3]
  IC50: 4.2 µM
[4]
  IC50: 4.3 µM
